{
  "source": "patent US9226916B2",
  "about": "“Pyrrolidine derivatives” (HOFFMANN-LA ROCHE INC., priority 2009, dated 2016)",
  "data": [
    {"target": "T1, recombinant human NK3 receptor (Homo sapiens, UniProt P29371)", "T1 construct": "expressed in transfected cells; host or cells: HEK293 cells, transient expression; membranes", "T1 sequence (P29371 1-465)": "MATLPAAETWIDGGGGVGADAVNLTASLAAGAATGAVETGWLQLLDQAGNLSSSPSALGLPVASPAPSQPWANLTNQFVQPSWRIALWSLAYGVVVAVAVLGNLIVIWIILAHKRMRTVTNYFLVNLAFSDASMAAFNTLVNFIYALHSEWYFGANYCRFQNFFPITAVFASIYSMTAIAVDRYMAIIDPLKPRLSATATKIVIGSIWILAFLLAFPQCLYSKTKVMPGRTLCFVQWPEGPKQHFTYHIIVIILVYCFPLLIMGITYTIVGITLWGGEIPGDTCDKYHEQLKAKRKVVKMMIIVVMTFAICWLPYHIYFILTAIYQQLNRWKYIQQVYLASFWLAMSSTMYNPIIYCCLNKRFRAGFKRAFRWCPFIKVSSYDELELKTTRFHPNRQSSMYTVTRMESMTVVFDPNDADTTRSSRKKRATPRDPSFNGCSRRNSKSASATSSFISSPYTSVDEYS", "experiment": "[3H]SR142801 competition binding assay", "conditions": "not given", "units": {"Ki": "nM"}, "values": [
      {"smiles": "CN(C(=O)Oc1ccc(F)cc1)[C@@H]1CN(C(=O)CCN2CCOCC2)C[C@H]1c1ccc(Cl)cc1", "note": "[Example 114, [(3S,4R)-4-(4-Chloro-phenyl)-1-(3-morpholin-4-yl-propionyl)-pyrrolidin-3-yl]-methyl-carbamic acid 4-fluoro-phenyl ester]", "Ki": 83},
      {"smiles": "CN(C(=O)OCCC(F)(F)F)[C@H]1CN(C(=O)C2CCN(C(=O)C3(C)CC3)CC2)C[C@@H]1c1ccc(Cl)c(Cl)c1", "note": "(stereo in doubt) [Example 86, {(3R,4S)-4-(3,4-dichloro-phenyl)-1-[1-(1-methyl-cyclopropanecarbonyl)-piperidine-4-carbonyl]-pyrrolidin-3-yl}-methyl-carbamic acid 3,3,3-trifluoro-propyl ester]", "Ki": 60.4},
      {"smiles": "Cc1ccc(OC(=O)N(C)[C@@H]2CN(C(=O)C3CCN(c4ccc(C#N)cn4)CC3)C[C@H]2c2ccc(Cl)cc2)cc1", "note": "[Example 202, [(3S,4R)-4-(4-Chloro-phenyl)-1-(5′-cyano-3,4,5,6-tetrahydro-2H-[1,2′]bipyridinyl-4-carbonyl)-pyrrolidin-3-yl]-methyl-carbamic acid p-tolyl ester]", "Ki": 4.3},
      {"smiles": "CC1(C(=O)N2CCC(C(=O)N3C[C@H](NC(=O)Oc4ccc(F)cc4)[C@@H](c4ccc(Cl)c(Cl)c4)C3)CC2)CC1", "note": "(racemic) [Example 43, rac-{(3R,4S)-4-(3,4-Dichloro-phenyl)-1-[1-(1-methyl-cyclopropanecarbonyl)-piperidine-4-carbonyl]-pyrrolidin-3-yl}-carbamic acid 4-fluoro-phenyl ester]", "Ki": 3.4},
      {"smiles": "CN(C(=O)Oc1ccc(F)cc1)[C@H]1CN(C(=O)N2CCOCC2)C[C@@H]1c1ccc(Cl)c(Cl)c1", "note": "(racemic) [Example 48, rac-[(3R,4S)-4-(3,4-Dichloro-phenyl)-1-(morpholine-4-carbonyl)-pyrrolidin-3-yl]-methyl-carbamic acid 4-fluoro-phenyl ester]", "Ki": 29.4},
      {"smiles": "CN(C(=O)O[C@H]1CC[C@H](C(F)(F)F)CC1)[C@@H]1CN(C(=O)C2CCN(C3CCOCC3)CC2)CC1c1ccc(Cl)c(Cl)c1", "note": "(stereo in doubt) [Example 123, {(3S,4R)-4-(3,4-Dichloro-phenyl)-1-[1-(tetrahydro-pyran-4-yl)-piperidine-4-carbonyl]-pyrrolidin-3-yl}-methyl-carbamic acid 4-trifluoromethyl-cyclohexyl ester]", "Ki": 2.8},
      {"smiles": "COc1cnc(N2CCC(C(=O)N3C[C@@H](N(C)C(=O)Oc4ccc(F)cc4)[C@H](c4ccc(Cl)cc4)C3)CC2)nc1", "note": "[Example 190, {(3S,4R)-4-(4-Chloro-phenyl)-1-[1-(5-methoxy-pyrimidin-2-yl)-piperidine-4-carbonyl]-pyrrolidin-3-yl}-methyl-carbamic acid 4-fluoro-phenyl ester]", "Ki": 17.2},
      {"smiles": "CN(C(=O)Oc1ccc(F)cc1)[C@@H]1CN(C(=O)C2CCN(c3ncc(C(F)(F)F)cc3Cl)CC2)C[C@H]1c1ccc(Cl)cc1", "note": "[Example 188, [(3S,4R)-4-(4-Chloro-phenyl)-1-(3′-chloro-5′-trifluoromethyl-3,4,5,6-tetrahydro-2H-[1,2]bipyridinyl-4-carbonyl)-pyrrolidin-3-yl]-methyl-carbamic acid 4-fluoro-phenyl ester]", "Ki": 14.6},
      {"smiles": "CC(=O)Oc1ccc(N2CCC(C(=O)N3C[C@@H](N(C)C(=O)Oc4ccc(F)cc4)[C@H](c4ccc(Cl)cc4)C3)CC2)nc1", "note": "[Example 321, Acetic acid 4-{(3R,4S)-3-(4-chloro-phenyl)-4-[(4-fluoro-phenoxycarbonyl)-methyl-amino]-pyrrolidine-1-carbonyl}-3,4,5,6-tetrahydro-2H-[1,2′]bipyridinyl-5′-yl ester]", "Ki": 2.4},
      {"smiles": "CN(C(=O)Oc1ccc(F)cc1)[C@@H]1CN(C(=O)C2CCN(C(=O)c3ccc(C(F)(F)F)cn3)CC2)C[C@H]1c1ccc(Cl)cc1", "note": "[Example 261, {(3S,4R)-4-(4-Chloro-phenyl)-1-[1-(5-trifluoromethyl-pyridine-2-carbonyl)-piperidine-4-carbonyl]-pyrrolidin-3-yl}-methyl-carbamic acid 4-fluoro-phenyl ester]", "Ki": 18.9},
      {"smiles": "COCC(=O)N1CCC(C(=O)N2C[C@H](c3ccc(Cl)c(Cl)c3)[C@@H](N(C)C(=O)Oc3ccc(F)cc3)C2)CC1", "note": "(racemic) [Example 75, rac-{(3R,4S)-4-(3,4-Dichloro-phenyl)-1-[1-(2-methoxy-acetyl)-piperidine-4-carbonyl]-pyrrolidin-3-yl}-methyl-carbamic acid 4-fluoro-phenyl ester]", "Ki": 0.6},
      {"smiles": "CN(C(=O)Oc1ccc(F)cc1)[C@@H]1CN(C(=O)C2CCN(C(=O)C3(C#N)CC3)CC2)C[C@H]1c1ccc(Cl)c(Cl)c1", "note": "[Example 272, [(3S,4R)-1-[1-(1-Cyano-cyclopropanecarbonyl)-piperidine-4-carbonyl]-4-(3,4-dichloro-phenyl)-pyrrolidin-3-yl]-methyl-carbamic acid 4-fluoro-phenyl ester]", "Ki": 0.8}
    ]},
    {"target": "T1, recombinant human NK3 receptor", "experiment": "[3H]SR142801 competition binding assay", "conditions": "hNK-3 receptor affinity; membranes from HEK293 cells transiently expressing recombinant human NK3 receptor; [3H]SR142801; Cheng-Prussoff; read-out: Data Ki", "units": {"Ki": "nM"}, "values": [
      {"smiles": "CN(C(=O)O[C@H]1CC[C@H](C(F)(F)F)CC1)[C@@H]1CN(C(=O)C2CCN(c3ccc(C#N)cn3)CC2)C[C@H]1c1ccc(Cl)cc1", "note": "[Example 126, [(3S,4R)-4-(4-Chloro-phenyl)-1-(5′-cyano-3,4,5,6-tetrahydro-2H-[1,2′]bipyridinyl-4-carbonyl)-pyrrolidin-3-yl]-methyl-carbamic acid 4-trifluoromethyl-cyclohexyl ester]", "Ki": 1.2},
      {"smiles": "CN(C(=O)OCCC1CC1)[C@H]1CN(C(=O)C2CCN(C(=O)C3(C)CC3)CC2)C[C@@H]1c1ccc(Cl)cc1", "note": "(stereo in doubt) [Example 54, rac-{(3R,4S)-4-(4-Chloro-phenyl)-1-[1-(1-methyl-cyclopropanecarbonyl)-piperidine-4-carbonyl]-pyrrolidin-3-yl}-methyl-carbamic acid 2-cyclopropyl-ethyl ester]", "Ki": 26.4},
      {"smiles": "CN(C(=O)OCCCC(F)(F)F)[C@H]1CN(C(=O)C2CCN(C(=O)C3(C)CC3)CC2)C[C@@H]1c1ccc(Cl)c(Cl)c1", "note": "(racemic) [Example 67, rac-{(3R,4S)-4-(3,4-Dichloro-phenyl)-1-[1-(1-methyl-cyclopropanecarbonyl)-piperidine-4-carbonyl]-pyrrolidin-3-yl}-methyl-carbamic acid 4,4,4-trifluoro-butyl ester]", "Ki": 0.4},
      {"smiles": "CN(C(=O)OCC(F)(F)F)[C@@H]1CN(C(=O)C2CCN(c3ccc(C#N)cn3)CC2)C[C@H]1c1ccc(Cl)cc1", "note": "[Example 158, [(3S,4R)-4-(4-Chloro-phenyl)-1-(5′-cyano-3,4,5,6-tetrahydro-2H-[1,2′]bipyridinyl-4-carbonyl)-pyrrolidin-3-yl]-methyl-carbamic acid 2,2,2-trifluoro-ethyl ester]", "Ki": 12.5},
      {"smiles": "CN(C(=O)OC1CCCCC1)[C@@H]1CN(C(=O)C2CCN(c3ccc(C#N)cn3)CC2)C[C@H]1c1ccc(Cl)cc1", "note": "[Example 143, [(3S,4R)-4-(4-Chloro-phenyl)-1-(5′-cyano-3,4,5,6-tetrahydro-2H-[1,2′]bipyridinyl-4-carbonyl)-pyrrolidin-3-yl]-methyl-carbamic acid cyclohexyl ester]", "Ki": 3.2},
      {"smiles": "CN(C(=O)O[C@]1(C)CC[C@@H](C)CC1)[C@@H]1CN(C(=O)C2CCN(c3ccc(C#N)cn3)CC2)C[C@H]1c1ccc(Cl)cc1", "note": "[Example 242, [(3S,4R)-4-(4-Chloro-phenyl)-1-(5′-cyano-3,4,5,6-tetrahydro-2H-[1,2′]bipyridinyl-4-carbonyl)-pyrrolidin-3-yl]-methyl-carbamic acid 1,4-dimethyl-cyclohexyl ester]", "Ki": 2.7}
    ]}
  ]
}
